Legend:
PC12 cells [1] = assay: Calcium imaging (Fura-2) of differentiated PC12 cells after acute and/or chronic Aβ peptide application; assay type: cell-based, rat; conditions: preincubated overnight at low concentration (10 nM), then acute 1 μM Aβ1-42
Procedure: PC12 rat pheochromocytoma cells were cultured in RPMI 1640 medium (InVitrogen) supplemented with 5% heat-inactivated horse serum, 10% foetal bovine serum (Dominique Dutcher) and antibiotics (penicillin 100 U/ml, streptomycin 100 U/ml, Sigma) at 37° C. in 5% CO2. PC12 cells were reseeded once a week. Before use, cells were platted in 35 mm glass-bottom culture dishes coated with type I collagen and Poly-L-ornithine; NGF (50 μg/1, Sigma) was added in the culture medium to induce their neuronal differentiation. Cells were used after 5 days in vitro, when they express a complete neuronal phenotype (neurite like extensions, voltage dependent ionic channels, neurotransmitters receptors and neurotransmitter secretion capacities).
PC12 cells platted on glass-bottom culture dishes were loaded with Fura-2 AM (1 μM, InVitrogen) and pluronic acid (InVitrogen) in a Hepes buffer for 20 min at 37° C. […] Fluorescence was excited by a xenon lamp equipped with two alternating filters allowing a fluorescence excitation at 350 nm for Ca^2+-bound Fura-2 and at 380 nm for Ca^2+-unbound Fura-2. Image pairs were recorded during 20 minutes every 5 seconds using an EM-CCD camera (Hamamatsu Photonics). Emitted fluorescence intensities (510 nm) were measured from regions of interest centered on individual cells. Normalized ratios were calculated. […]

PC12 cells [2] = assay: Immunocytochemistry of Aβ oligomers bound to PC12 cells (A11 antibody); assay type: cell-based, rat
Procedure: In an attempt to characterise the tertiary form of the peptide bound to the cells and responsible for the priming effect that was observed immunocytochemical experiments were performed: PC12 cells were plated on poly-L-ornithine coated coverslips and maintained for 5 days in culture media supplemented with NGF to induce neuronal differentiation at 37° C. According to experimental conditions, PC 12 cells have undergone a chronic treatment and/or an acute treatment (see Example 1). Cells were subsequently rinsed to eliminate unbound Aβ and fixed with 4% paraformaldehyde in phosphate buffered saline (PBS) for 10 minutes. PC12 cells were then incubated in a blocking solution (3% Bovine Serum Albumin in PBS) for 1 hour at room temperature. A rabbit polyclonal antibody A11 (Millipore) directed against Aβ oligomers diluted 1:1500 in blocking solution was applied to the cells overnight at 4° C. Cells were washed three times for 10 minutes with the blocking solution and incubated with the appropriate secondary Dylight 549-conjugated antibody goat […], (Jackson Immunoresearch, diluted 1:2000) for 2 hours at room temperature, washed 3×10 minutes in PBS and mounted in Mowiol.
Panel G of FIG. 2(g) represents the quantification of the fluorescence intensity in the different experimental conditions in 2(a) to 2(f).

## Aβ1-42: synthetic beta-amyloid peptide 1-42 (Bachem or Anaspec), SEQ ID NO: 4
PC12 cells [1]
  priming: [Ca^2+]i response to subsequent acute 1 μM Aβ1-42 after overnight preincubation with the peptide: amplified
PC12 cells [2]; acute application of 1 μM, no preincubation
  fluorescent signal of bound Aβ oligomers after acute application only: No significant fluorescent signal
PC12 cells [2]; chronic preincubation plus acute stimulation
  fluorescent signal of bound Aβ oligomers, chronic preincubation associated to acute stimulation: a clear signal was observed
PC12 cells [2]; preincubation with 10 or 50 nM, no acute application
  fluorescent signal of bound Aβ oligomers after preincubation only: No significant fluorescent signal

From US9377472B2, “Biological complex specific for Alzheimer's disease detection in vitro and use thereof” (Amoneta Diagnostics, priority 2012, dated 2016)
